Test results from ChEMBL document CHEMBL3272271, “Folate antagonists. 13. 2,4-Diamino-6-](alpha,alpha,alpha-trifluoro-m-tolyl)thio]quinazoline and related 2,4-diamino-6-[(phenyl- and naphthyl)thio]quinazolines, a unique class of antimetabolites with extraordinary antimalarial and antibacterial effects” (J Med Chem, 1978).
In brackets after ≈: the same amount, converted by molar mass. Activity calls are given as the source filed them. The rule behind the calls is not given here.

Assays:
Plasmodium gallinaceum [1] = assay: Antimalarial activity against trophozoite-induced Plasmodium gallinaceum infected in white leghorn chicken assessed as disease cure from parasite infection at 320 mg/kg, sc administered 72 hrs after infection; format: functional, organism-based; parameters: dose 320 mg/kg
Plasmodium berghei [2] = assay: Antimalarial activity against Plasmodium berghei infected in mouse assessed as disease cure from parasite infection at 320 mg/kg, sc administered 72 hrs after infection; format: functional, organism-based; parameters: dose 320 mg/kg
Plasmodium berghei [3] = assay: Antimalarial activity against Plasmodium berghei infected in mouse assessed as disease cure from parasite infection at 640 mg/kg, sc administered 72 hrs after infection; format: functional, organism-based; parameters: dose 640 mg/kg
Plasmodium gallinaceum [4] = assay: Antimalarial activity against sporozoite-induced Plasmodium gallinaceum infected in white leghorn chicken assessed as disease cure from parasite infection at 30 mg/kg, sc administered 72 hrs after infection; format: functional, organism-based; parameters: dose 30 mg/kg
Plasmodium gallinaceum [5] = assay: Antimalarial activity against sporozoite-induced Plasmodium gallinaceum infected in white leghorn chicken assessed as disease cure from parasite infection at 15 mg/kg, sc administered 72 hrs after infection; format: functional, organism-based; parameters: dose 15 mg/kg
Plasmodium gallinaceum [6] = assay: Antimalarial activity against trophozoite-induced Plasmodium gallinaceum infected in white leghorn chicken assessed as disease cure from parasite infection at 40 mg/kg, sc administered 72 hrs after infection; format: functional, organism-based; parameters: dose 40 mg/kg
Plasmodium gallinaceum [7] = assay: Antimalarial activity against sporozoite-induced Plasmodium gallinaceum infected in white leghorn chicken assessed as disease cure from parasite infection at 240 mg/kg, sc administered 72 hrs after infection; format: functional, organism-based; parameters: dose 240 mg/kg
Plasmodium gallinaceum [8] = assay: Antimalarial activity against sporozoite-induced Plasmodium gallinaceum infected in white leghorn chicken assessed as disease cure from parasite infection at 120 mg/kg, sc administered 72 hrs after infection; format: functional, organism-based; parameters: dose 120 mg/kg
Plasmodium gallinaceum [9] = assay: Antimalarial activity against trophozoite-induced Plasmodium gallinaceum infected in white leghorn chicken assessed as disease cure from parasite infection at 80 mg/kg, sc administered 72 hrs after infection; format: functional, organism-based; parameters: dose 80 mg/kg
Plasmodium gallinaceum [10] = assay: Antimalarial activity against sporozoite-induced Plasmodium gallinaceum infected in white leghorn chicken assessed as disease cure from parasite infection at 480 mg/kg, sc administered 72 hrs after infection; format: functional, organism-based; parameters: dose 480 mg/kg
Plasmodium gallinaceum [11] = assay: Antimalarial activity against trophozoite-induced Plasmodium gallinaceum infected in white leghorn chicken assessed as disease cure from parasite infection at 160 mg/kg, sc administered 72 hrs after infection; format: functional, organism-based; parameters: dose 160 mg/kg
Plasmodium gallinaceum [12] = assay: Antimalarial activity against sporozoite-induced Plasmodium gallinaceum infected in white leghorn chicken assessed as disease cure from parasite infection at 60 mg/kg, sc administered 72 hrs after infection; format: functional, organism-based; parameters: dose 60 mg/kg
Plasmodium gallinaceum [13] = assay: Antimalarial activity against sporozoite-induced Plasmodium gallinaceum infected in white leghorn chicken assessed as disease cure from parasite infection at 7.5 mg/kg, sc administered 72 hrs after infection; format: functional, organism-based; parameters: dose 7.5 mg/kg
Plasmodium berghei [14] = assay: Antimalarial activity against Plasmodium berghei infected in mouse assessed as disease cure from parasite infection at 160 mg/kg, sc administered 72 hrs after infection; format: functional, organism-based; parameters: dose 160 mg/kg
Plasmodium berghei [15] = assay: Antimalarial activity against Plasmodium berghei infected in mouse assessed as disease cure from parasite infection at 20 mg/kg, sc administered 72 hrs after infection; format: functional, organism-based; parameters: dose 20 mg/kg
Plasmodium gallinaceum [16] = assay: Antimalarial activity against sporozoite-induced Plasmodium gallinaceum infected in white leghorn chicken assessed as increase in mean survival days of host at 30 mg/kg, sc administered 72 hrs after infection relative to control; format: functional; details: route subcutaneous
Plasmodium gallinaceum [17] = assay: Antimalarial activity against trophozoite-induced Plasmodium gallinaceum infected in white leghorn chicken assessed as increase in mean survival days of host at 120 mg/kg, sc administered 72 hrs after infection relative to control; format: functional; details: route subcutaneous
Plasmodium gallinaceum [18] = assay: Antimalarial activity against sporozoite-induced Plasmodium gallinaceum infected in white leghorn chicken assessed as disease cure from parasite infection at 320 mg/kg, sc administered 72 hrs after infection; format: functional, organism-based; parameters: dose 320 mg/kg
Plasmodium berghei [19] = assay: Ratio of quinine hydrochloride SD90 to compound SD90 for trophozoite-induced Plasmodium berghei infected in mouse assessed as daily dose required to suppression of 90% parasite infection administered with diet for 6 days; format: functional
Gallus gallus = assay: Toxicity in sporozoite-induced Plasmodium gallinaceum infected white leghorn chicken assessed as mortality at 480 mg/kg, sc administered 72 hrs after infection measured up to 6 days; format: organism-based; parameters: dose 480 mg/kg, route subcutaneous; details: in vivo
Plasmodium gallinaceum [20] = assay: Antimalarial activity against sporozoite-induced Plasmodium gallinaceum infected in white leghorn chicken assessed as increase in mean survival days of host at 15 mg/kg, sc administered 72 hrs after infection relative to control; format: functional; details: route subcutaneous
Plasmodium berghei [21] = assay: Antimalarial activity against Plasmodium berghei infected in mouse assessed as disease cure from parasite infection at 80 mg/kg, sc administered 72 hrs after infection; format: functional, organism-based; parameters: dose 80 mg/kg
Plasmodium berghei [22] = assay: Antimalarial activity against trophozoite-induced Plasmodium berghei infected in mouse assessed as daily dose required to suppression of 90% parasite infection administered with diet for 6 days; format: functional
Plasmodium berghei [23] = assay: Antimalarial activity against Plasmodium berghei infected in mouse assessed as increase in mean survival days of host at 20 mg/kg, sc administered 72 hrs after infection relative to control; format: functional; details: route subcutaneous
Plasmodium gallinaceum [24] = assay: Antimalarial activity against sporozoite-induced Plasmodium gallinaceum infected in white leghorn chicken assessed as disease cure from parasite infection at 160 mg/kg, sc administered 72 hrs after infection; format: functional, organism-based; parameters: dose 160 mg/kg
Plasmodium gallinaceum [25] = assay: Antimalarial activity against trophozoite-induced Plasmodium gallinaceum infected in white leghorn chicken assessed as increase in mean survival days of host at 320 mg/kg, sc administered 72 hrs after infection relative to control; format: functional; details: route subcutaneous
Plasmodium gallinaceum [26] = assay: Antimalarial activity against trophozoite-induced Plasmodium gallinaceum infected in white leghorn chicken assessed as increase in mean survival days of host at 80 mg/kg, sc administered 72 hrs after infection relative to control; format: functional; details: route subcutaneous
Plasmodium gallinaceum [27] = assay: Antimalarial activity against sporozoite-induced Plasmodium gallinaceum infected in white leghorn chicken assessed as disease cure from parasite infection at 80 mg/kg, sc administered 72 hrs after infection; format: functional, organism-based; parameters: dose 80 mg/kg
Plasmodium gallinaceum [28] = assay: Antimalarial activity against trophozoite-induced Plasmodium gallinaceum infected in white leghorn chicken assessed as disease cure from parasite infection at 10 mg/kg, sc administered 72 hrs after infection; format: functional, organism-based; parameters: dose 10 mg/kg
Plasmodium berghei [29] = assay: Antimalarial activity against Plasmodium berghei infected in mouse assessed as increase in mean survival days of host at 1.25 mg/kg, sc administered 72 hrs after infection relative to control; format: functional; details: route subcutaneous
Plasmodium gallinaceum [30] = assay: Antimalarial activity against trophozoite-induced Plasmodium gallinaceum infected in white leghorn chicken assessed as increase in mean survival days of host at 2.5 mg/kg, sc administered 72 hrs after infection relative to control; format: functional; details: route subcutaneous
Plasmodium gallinaceum [31] = assay: Antimalarial activity against trophozoite-induced Plasmodium gallinaceum infected in white leghorn chicken assessed as disease cure from parasite infection at 20 mg/kg, sc administered 72 hrs after infection; format: functional, organism-based; parameters: dose 20 mg/kg
Plasmodium falciparum [32] = assay: Antimalarial activity against pyrimethamine-sensitive Plasmodium falciparum Vietnam Oak Knoll infected in Aotus trivirgatus owl monkey model assessed as cure from parasite infection at 0.098 to 1.56 mg/kg, po qd for 7 days relative to control; format: functional; details: dose mg/kg 0.098-1.56
Plasmodium falciparum [33] = assay: Antimalarial activity against pyrimethamine-sensitive Plasmodium falciparum Vietnam Oak Knoll infected in Aotus trivirgatus owl monkey model assessed as cure from parasite infection at 0.6 mg/kg, po qd for 7 days relative to control; format: functional
Plasmodium gallinaceum [34] = assay: Antimalarial activity against trophozoite-induced Plasmodium gallinaceum infected in white leghorn chicken assessed as increase in mean survival days of host at 0.63 mg/kg, sc administered 72 hrs after infection relative to control; format: functional; details: route subcutaneous
Staphylococcus aureus [35] = assay: Antibacterial activity against Staphylococcus aureus UC-96 by gradient plate test; format: functional
Escherichia coli = assay: Antibacterial activity against Escherichia coli Vogel by gradient plate test; format: functional
Plasmodium berghei [36] = assay: Antimalarial activity against Plasmodium berghei infected in mouse assessed as increase in mean survival days of host at 10 mg/kg, sc administered 72 hrs after infection relative to control; format: functional; details: route subcutaneous
Plasmodium berghei [37] = assay: Antimalarial activity against cycloguanil-resistant Plasmodium berghei assessed as drug resistance; format: functional, organism-based
Plasmodium berghei [38] = assay: Antimalarial activity against Plasmodium berghei infected in mouse assessed as increase in mean survival days of host at 5 mg/kg, sc administered 72 hrs after infection relative to control; format: functional; details: route subcutaneous
Plasmodium falciparum [39] = assay: Antimalarial activity against chloroquine-susceptible, pyrimethamine-resistant Plasmodium falciparum Malayan Camp infected in Aotus trivirgatus owl monkey model assessed as cure from parasite infection at 0.39 to 5 mg/kg, po qd for 7 days relative to control; format: functional; details: dose mg/kg 0.39-5
Staphylococcus aureus [40] = assay: Antibacterial activity against drug-resistant Staphylococcus aureus S18713 by gradient plate test; format: functional
Pseudomonas aeruginosa = assay: Antibacterial activity against Pseudomonas aeruginosa 28 by gradient plate test; format: functional
Plasmodium gallinaceum [41] = assay: Antimalarial activity against trophozoite-induced Plasmodium gallinaceum infected in white leghorn chicken assessed as increase in mean survival days of host at 1.25 mg/kg, sc administered 72 hrs after infection relative to control; format: functional; details: route subcutaneous
Plasmodium berghei [42] = assay: Antimalarial activity against chloroquine-resistant Plasmodium berghei assessed as drug resistance; format: functional, organism-based
Plasmodium berghei [43] = assay: Antimalarial activity against Plasmodium berghei infected in mouse assessed as disease cure from parasite infection at 40 mg/kg, sc administered 72 hrs after infection; format: functional, organism-based; parameters: dose 40 mg/kg
Plasmodium berghei [44] = assay: Antimalarial activity against Plasmodium berghei infected in mouse assessed as increase in mean survival days of host at 2.5 mg/kg, sc administered 72 hrs after infection relative to control; format: functional; details: route subcutaneous
Shigella sonnei = assay: Antibacterial activity against Shigella sonnei C-10 by gradient plate test; format: functional
Plasmodium falciparum [45] = assay: Antimalarial activity against chloroquine-susceptible, pyrimethamine-resistant Plasmodium falciparum Malayan Camp infected in Aotus trivirgatus owl monkey model assessed as cure from parasite infection at >2.5 mg/kg, po qd for 7 days relative to control; format: functional
Plasmodium gallinaceum [46] = assay: Antimalarial activity against trophozoite-induced Plasmodium gallinaceum infected in white leghorn chicken assessed as increase in mean survival days of host at 5 mg/kg, sc administered 72 hrs after infection relative to control; format: functional; details: route subcutaneous
Enterococcus faecalis = assay: Antibacterial activity against Streptococcus faecalis MGH-2 by gradient plate test; format: functional

## Nc1nc(N)c2cc(NCc3ccc(Cl)c(Cl)c3)ccc2n1
Plasmodium gallinaceum [1]
  Activity: Active
Plasmodium berghei [2]
  Activity: Active
Plasmodium berghei [3]
  Activity: Active
Plasmodium gallinaceum [4]
  Activity: Active
Plasmodium gallinaceum [5]
  Activity: Active
Plasmodium gallinaceum [6]
  Activity: Active
Plasmodium gallinaceum [7]
  Activity: Active
Plasmodium gallinaceum [8]
  Activity: Active
Plasmodium gallinaceum [9]
  Activity: Active
Plasmodium gallinaceum [10]
  Activity: Active
Plasmodium gallinaceum [11]
  Activity: Active
Plasmodium gallinaceum [12]
  Activity: Active
Plasmodium gallinaceum [13]
  Activity: Active
Plasmodium berghei [14]
  Activity: Active

## CC(=O)O.Nc1nc(N)c2cc(N(Cc3ccc(Cl)c(Cl)c3)N=O)ccc2n1
Plasmodium gallinaceum [1]
  Activity: Active
Plasmodium berghei [2]
  Activity: Active
Plasmodium gallinaceum [4]
  Activity: Active
Plasmodium berghei [15]
  Activity: Active
Plasmodium gallinaceum [16]
  MST: 0 days
Plasmodium gallinaceum [5]
  Activity: Active
Plasmodium gallinaceum [17]
  MST: 16.9 days
Plasmodium gallinaceum [18]
  Activity: Active
Plasmodium gallinaceum [7]
  Activity: Active
Plasmodium gallinaceum [8]
  Activity: Active
Plasmodium gallinaceum [9]
  Activity: Active
Plasmodium berghei [19]
  Ratio: 270
Gallus gallus
  Activity: Toxic
Plasmodium gallinaceum [10]
  Activity: Active
Plasmodium gallinaceum [20]
  MST: 0 days
Plasmodium berghei [21]
  Activity: Active
Plasmodium berghei [22]
  SD90: 0.27 mg/kg/day
Plasmodium berghei [23]
  MST: 22.4 days
Plasmodium gallinaceum [11]
  Activity: Active
Plasmodium gallinaceum [12]
  Activity: Active
Plasmodium gallinaceum [24]
  Activity: Active
Plasmodium berghei [14]
  Activity: Active
Plasmodium gallinaceum [25]
  MST: 16.9 days
Plasmodium gallinaceum [26]
  MST: 16.9 days
Plasmodium gallinaceum [27]
  Activity: Active

## CN(C)c1ccc(Sc2ccc3nc(N)nc(N)c3c2)cc1
Plasmodium gallinaceum [28]
  Activity: Active
Plasmodium berghei [29]
  MST: 2.5 days
Plasmodium berghei [2]
  Activity: Active
Plasmodium berghei [3]
  Activity: Active
Plasmodium gallinaceum [30]
  MST: 12.6 days
Plasmodium gallinaceum [31]
  Activity: Active
Plasmodium falciparum [32]
  Activity: >50%
Plasmodium gallinaceum [4]
  Activity: Active
Plasmodium berghei [15]
  Activity: Active
Plasmodium falciparum [33]
  Activity: >50%
Plasmodium gallinaceum [34]
  MST: 6.6 days
Plasmodium gallinaceum [5]
  Activity: Active
Plasmodium gallinaceum [7]
  Activity: Active
Plasmodium gallinaceum [8]
  Activity: Active
Staphylococcus aureus [35]
  MIC: < 0.25 mg/L
Plasmodium gallinaceum [10]
  Activity: Active
Escherichia coli
  MIC: 1.5 mg/L (≈ 4.82 µM)
Plasmodium berghei [36]
  MST: 10.3 days
Plasmodium berghei [37]
  Activity: Active
Plasmodium berghei [38]
  MST: 9.7 days
Plasmodium falciparum [39]
  Activity: >50%
Staphylococcus aureus [40]
  MIC: < 0.25 mg/L
Pseudomonas aeruginosa
  MIC: > 25 mg/L
Plasmodium gallinaceum [41]
  MST: 10.4 days
Plasmodium berghei [42]
  Activity: inactive
Plasmodium berghei [21]
  Activity: Active
Plasmodium berghei [43]
  Activity: Active
Plasmodium gallinaceum [12]
  Activity: Active
Plasmodium berghei [44]
  MST: 5.5 days
Shigella sonnei
  MIC: 10 mg/L (≈ 32.1 µM)
Plasmodium falciparum [45]
  Activity: >50%
Plasmodium berghei [14]
  Activity: Active
Plasmodium gallinaceum [46]
  MST: 19.8 days
Enterococcus faecalis
  MIC: < 0.25 mg/L
